Laboratory results: paper PMC8400257, “2-Phenoxy-3-Trichloromethylquinoxalines Are Antiplasmodial Derivatives with Activity against the Apicoplast of Plasmodium falciparum” (Pharmaceuticals, 2021)

Experiments:
[1] = system: Pf3D7 (3D7 chloroquine-sensitive strain); conditions: Figure 2; cited from earlier work
[2] = system: PfFCR-3 (FCR-3 multidrug-resistant strain); parameters: method as in PMID 28291694; conditions: Figure 2; cited from earlier work
HepG2 = conditions: Figure 2; cited from earlier work
[3] = system: P. falciparum ART-resistant strain F32-ART5; assay: Standard in vitro chemo-sensitivity assay, F32-ART5; assay type: cell-based; conditions: Plasmodium falciparum, F32, 48 h, read-out: Mean ± SEM EC50 values F32-ART5
Procedure: (§1) The Plasmodium falciparum ART-resistant strain F32-ART5 and its tween ART-sensitive strain F32-TEM [33, 41] were cultivated at 37 °C with 5% CO2 in human red blood cells (EFS, French Blood Bank) diluted to 2% hematocrit in RPMI-1640 medium (Biowest, Nuaillé, France) supplemented with 5% human serum (EFS, French Blood Bank), as previously reported.
(§2) The chemosensitivity assay was carried out in 96-well culture plates on synchronized ring-stage parasites at 1% parasitemia obtained after D-sorbitol treatment. The antiplasmodial activities were evaluated using the SYBR Green I method. Parasites were exposed for 48 h to a range of concentrations of the different tested compounds. Each drug concentration was tested in triplicates. Parasite pellets were then washed in 1× PBS prior to lysing red blood cells at −20 °C overnight. Then, the plates were thawed and 100 µL of each well were transferred into a black 96-well plate. Next, 100 µL per well of SYBR Green I (Thermo Fisher) diluted at a final concentration of 2× in lysis buffer (20 mM Tris base pH 7.5, 5 mM EDTA, 0.008% w/v saponin, 0.08% w/v Triton X-100) were added and left to incubate for 1 h at room temperature prior to reading the plates on BioTek FLx800 Microplate Fluorescence Reader (λexcitation = 485 nm, λemission = 528 nm). Relative EC50 values were determined using GraphPad Prism software.

[4] = system: F32-ART5 and F32-TEM parasites; assay: Recrudescence assay; assay type: cell-based, Plasmodium falciparum; conditions: 48 h exposure; 2.5 µM 3i or 18 µM ART; log-rank Mantel-Cox test
Procedure: Recrudescence assay was performed to evaluate the ability of the F32-ART5 parasites to survive drug exposure comparatively to the F32-TEM parasites. D-sorbitol synchronized ring-stages at 3% parasitemia (2% hematocrit) were exposed to drug for 48 h. After drug exposure, parasite cultures were washed with RPMI-1640 medium and replaced in normal drug-free culture conditions. The time to parasite recrudescence was determined as the time required to reach the 3% initial parasitemia. […] Each experiment was performed for F32-ART5 and F32-TEM and cultivated in parallel in the same conditions to generate paired results. This was carried out at least three times independently. A statistical analysis (log-rank Mantel–Cox test) was carried out on data thanks to a Kaplan–Meier survival analysis (using GraphPad Prism software) considering censored data.
Figure S48. 13C NMR spectrum of 2i in CDCl3, on a Bruker ARX 101 spectrometer
2. […]
3. Studying the effect of (3i) on the liver stage development of P. falciparum Cryopreserved primary human hepatocytes were seeded in 96 well plates with a pre-determined seeding dose that gave a single dense layer of attached hepatocytes. […]
The culture medium with or without drugs was refreshed every 48 hours and two independent plates were studied. […] Plates were subjected to quantification using an automated plate scanner. […]

[5] = system: P. falciparum ART-sensitive strain F32-TEM; assay: Standard in vitro chemo-sensitivity assay, F32-TEM; assay type: cell-based; conditions: Plasmodium falciparum, F32, 48 h, read-out: Mean ± SEM EC50 values F32-TEM
Procedure: as §1, §2

SMILES	EC50 [1] [µM]	EC50 [2] [µM]	CC50 (HepG2) [µM]	EC50 [3] [µM]	Recrudescence of F32-ART5 compared with F32-TEM after drug exposure [4]	EC50 [5] [µM]
Cc1c(/C=N/Nc2ccnc3cc(Cl)ccc23)[n+]([O-])c2cc(Cl)ccc2[n+]1[O-] [QdNO 19]	0.24	2.8	> 241			
C[C@@H]1CC[C@H]2[C@@H](C)C(=O)O[C@@H]3O[C@@]4(C)CC[C@@H]1[C@]32OO4 [Artemisinin, reference compound]				0.011 ± 0.003	significant faster	0.019 ± 0.003
